Assay results as given in ChEMBL document CHEMBL1201862, “PubChem BioAssay data set” (2004).
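96-well plates; 48 h exposure; 5 concentrations. Endpoints by linear interpolation between flanking doses. Not reached: highest tested concentration assigned. GI50 marks 50% less growth.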 Calls of active or inactive are those of the source. No stated cut-off is given here; in the data, active = GI50 up to about 1.1 µM and inactive = higher.

Columns and labels:
Experiment in all cases: NCI anticancer screen, dose series, 48 h
[1] = tested on: PC-3
[2] = tested on: LOX IMVI
[3] = tested on: CAKI-1
[4] = tested on: UACC-62
[5] = tested on: DU-145
[6] = tested on: OVCAR-3
[7] = tested on: SK-OV-3
[8] = tested on: SF-539
[9] = tested on: SR
[10] = tested on: HOP-92
[11] = tested on: TK-10
[12] = tested on: HCT-15
[13] = tested on: K562
[14] = tested on: NCI-H522
[15] = tested on: COLO 205
[16] = tested on: A498
[17] = tested on: MOLT-4
[18] = tested on: 786-0
[19] = tested on: SNB-19
[20] = tested on: RXF 393

Structure (SMILES)	GI50 [1]	GI50 [2]	GI50 [3]	GI50 [4]	GI50 [5]	GI50 [6]	GI50 [7]	GI50 [8]	GI50 [9]	GI50 [10]	GI50 [11]	GI50 [12] [µM]	GI50 [13]	GI50 [14]	GI50 [15]	GI50 [16]	GI50 [17]	GI50 [18]	GI50 [19]	GI50 [20]
C=C1CC2(OC1=O)c1ccccc1CCc1ccccc12	14.3 µM (inactive)	1.46 µM (inactive)	1.75 µM (inactive)	6.4 µM (inactive)	18.7 µM (inactive)	1.89 µM (inactive)	17.7 µM (inactive)	2.13 µM (inactive)	0.497 µM (active)	1.72 µM (inactive)	2.84 µM (inactive)	1.91	1.71 µM (inactive)	1.71 µM (inactive)	1.91 µM (inactive)	25.8 µM (inactive)	2.43 µM (inactive)	1.75 µM (inactive)	7.62 µM (inactive)	1.66 µM (inactive)
CC1(C)OC(CP(c2ccccc2)c2ccccc2)C(CP(c2ccccc2)c2ccccc2)O1 (stereo not given)	0.0548 µM (active)	0.224 µM (active)	2.92 µM (inactive)	1.97 µM (inactive)	2.23 µM (inactive)	0.0535 µM (active)	3.55 µM (inactive)	2.1 µM (inactive)	0.552 µM (active)	2.36 µM (inactive)	> 19.8 µM (inactive)	3.22	0.372 µM (active)	0.298 µM (active)	0.0792 µM (active)	3.39 µM (inactive)	0.254 µM (active)	1.83 µM (inactive)	0.601 µM (active)	0.857 µM (active)
N#Cc1c(-c2ccc([N+](=O)[O-])cc2)cc(-c2ccc(Nc3ccnc4cc(Cl)ccc34)cc2)nc1N	6.49 µM (inactive)	1.45 µM (inactive)	20.9 µM (inactive)	26.7 µM (inactive)	11 µM (inactive)	6.67 µM (inactive)	32 µM (inactive)	31.1 µM (inactive)	0.399 µM (active)	29.7 µM (inactive)	25.9 µM (inactive)	2.76	4.56 µM (inactive)	3.85 µM (inactive)	25.5 µM (inactive)	26.2 µM (inactive)	1.81 µM (inactive)	0.989 µM (active)	25.2 µM (inactive)	17.4 µM (inactive)
CC(=O)OC(C)(C)CCC(=O)[C@](C)(O)[C@H]1[C@H](O)C[C@@]2(C)[C@@H]3CCc4c(cc(OC5OC(CO)C(O)C(O)C5O)c(O)c4C)C3(C)C(=O)C[C@]12C (stereo not given in full)	> 100 µM (inactive)	> 100 µM (inactive)	> 100 µM (inactive)	> 100 µM (inactive)	> 100 µM (inactive)	> 100 µM (inactive)	> 100 µM (inactive)	> 100 µM (inactive)	> 100 µM (inactive)	> 100 µM (inactive)	> 100 µM (inactive)	> 100	> 100 µM (inactive)	> 100 µM (inactive)	> 100 µM (inactive)	> 100 µM (inactive)	> 100 µM (inactive)	> 100 µM (inactive)	> 100 µM (inactive)	> 100 µM (inactive)
COc1cc2c(cc1C[N+](C)(C)CSc1ccccc1)-c1ccccc1CC2	2.61 µM (inactive)	4 µM (inactive)	13.5 µM (inactive)	2.52 µM (inactive)	8.61 µM (inactive)	2.29 µM (inactive)	12.6 µM (inactive)	7.96 µM (inactive)	2.01 µM (inactive)	8.51 µM (inactive)	8.77 µM (inactive)	16.5	2.18 µM (inactive)	2.01 µM (inactive)	1.75 µM (inactive)	18.5 µM (inactive)	2.33 µM (inactive)	6.07 µM (inactive)	4.28 µM (inactive)	6.53 µM (inactive)
